This is an account of results in patent publication US9828375B2, “4-position substituted pyrazolopyrimidine derivative, and use thereof in drug preparation” (Guangxi Wuzhou Pharmaceuticals (Group) Co., Ltd., priority 2012, dated 2017).

Format in all cases: biochemical
The target in assay [1] is c-RAF (Homo sapiens, UniProt P04049). Briefly: Kinase inhibition activity test, isotope labeling: c-RAF. The settings on record: ATP 45 μM; read-out: c-RAF IC50 value (inhibitory activity value). Here is the method:
(§1) The purpose of this experiment was to test the inhibitory activity of the compound of the invention for in vitro kinase with the isotope labeling method (the γ phosphate group on ATP was labeled). In this experiment, the in vitro activity inhibition of such kinases as FLT3, VEGFR2, FLT1, FLT4, RET, c-RAF, B-RAF, c-KIT, PDGFα, PDGFβ, FGFR2, FGFR1, EphA2, EphB2, SRC, ABL, ALK and Met was tested respectively. Staurosporine was reference molecule (or referred to as positive control). The kinase inhibition activity of the test compound was expressed by half-inhibitory concentration (IC50) or the kinase activity inhibition rate of the test compound at a concentration of 10 μM. The IC50 value could be obtained by calculating the kinase activity inhibition rate of the test compound at different concentrations.
(§2) 20 mM 3-(N-morpholinyl)propanesulfonic acid (MOPS); 1 mM ethylenediaminetetraacetic acid (EDTA), 0.01% Brij 35 (Brij-35), 5% glycerol, 0.1% mercaptoethanol, 1 mg/mL bovine serum albumin (BSA), 10 mM manganous dichloride solution (MnCl2), 0.1 mg/mL glutamic acid/tyrosine (4:1) polypeptide (poly(Glu, Tyr)4:1), 50 μM EAIYAAPFAKKK (substrate of FLT3), 0.33 mg/mL myelin basic protein (substrate of VEGFR2), 250 μM KKKSPGEYVNIEFG (substrate of FLT1(h)), 500 μM GGEEEEYFELVKKKK (substrate of FLT4(h)), 250 μM KKKSPGEYVNIEFG (substrate of RET), 0.66 mg/mL myelin basic protein (substrate of C-RAF), 250 μM GGMEDIYFEFMGGKKK (substrate of c-Kit), 250 μM GGMEDIYFEFMGGKKK (substrate of PDGFα), 250 μM KKKSPGEYVNIEFG (substrate of FGFR1), […] GGEEEEYFELVKKKK (substrate of SRC), 50 μM EAIYAAPFAKKK (substrate of ABL), 250 μM KKKSPGEYVNIEFG (substrate of ALK), 250 μM KKKSPGEYVNIEFG (substrate of Met(h)), 10 mM magnesium acetate and γ-^33 P-ATP solution, stop buffer (3% phosphate buffer), washing buffer (75 mM phosphate solution), methanol, Filtermat A membrane, FLT3, VEGFR2, FLT3, VEGFR2, FLT1, FLT4, RET, c-RAF, B-RAF, c-KIT, PDGFRα, PDGFRβ, FGFR2, FGFR1, EphA2, EphB2, SRC, ABL, ALK, Met and other kinases, and the test compounds.
(§3) Buffers (8 mM MOPS with pH value of 7.0, 0.2 mM EDTA and 10 mM MnCl2), (5-10 mU) kinases to be tested (FLT3, VEGFR2, FLT1, FLT4, RET, c-RAF, B-RAF, c-KIT, PDGFRα, PDGFRβ, FGFR2, FGFR1, EphA2, EphB2, SRC, ABL, ALK and Met), substrates of kinases to be tested (refer to experimental materials), 10 mM magnesium acetate and γ-^33 P-ATP solution, and test compounds at different concentrations were added to a reaction tube orderly. […] Reaction was terminated with 5 μL 3% phosphate buffer finally, and 10 μL reaction solution was titrated to the Filtermat A membrane; solution was washed for 3 times with 75 mM phosphate solution with each time lasting 5 minutes, and then washed once with methanol. […]

For assay [2], the target named is FLT1 (Homo sapiens, UniProt P17948). The assay can be described thus: Kinase inhibition activity test, isotope labeling: FLT1. The settings on record: ATP 200 μM; read-out: FLT1 IC50 value (inhibitory activity value). Here is the method: as §1, §2, §3
For assay [3], the target named is T1, EphB2 (Homo sapiens, UniProt P29323).
T1 sequence (P29323 19-1055): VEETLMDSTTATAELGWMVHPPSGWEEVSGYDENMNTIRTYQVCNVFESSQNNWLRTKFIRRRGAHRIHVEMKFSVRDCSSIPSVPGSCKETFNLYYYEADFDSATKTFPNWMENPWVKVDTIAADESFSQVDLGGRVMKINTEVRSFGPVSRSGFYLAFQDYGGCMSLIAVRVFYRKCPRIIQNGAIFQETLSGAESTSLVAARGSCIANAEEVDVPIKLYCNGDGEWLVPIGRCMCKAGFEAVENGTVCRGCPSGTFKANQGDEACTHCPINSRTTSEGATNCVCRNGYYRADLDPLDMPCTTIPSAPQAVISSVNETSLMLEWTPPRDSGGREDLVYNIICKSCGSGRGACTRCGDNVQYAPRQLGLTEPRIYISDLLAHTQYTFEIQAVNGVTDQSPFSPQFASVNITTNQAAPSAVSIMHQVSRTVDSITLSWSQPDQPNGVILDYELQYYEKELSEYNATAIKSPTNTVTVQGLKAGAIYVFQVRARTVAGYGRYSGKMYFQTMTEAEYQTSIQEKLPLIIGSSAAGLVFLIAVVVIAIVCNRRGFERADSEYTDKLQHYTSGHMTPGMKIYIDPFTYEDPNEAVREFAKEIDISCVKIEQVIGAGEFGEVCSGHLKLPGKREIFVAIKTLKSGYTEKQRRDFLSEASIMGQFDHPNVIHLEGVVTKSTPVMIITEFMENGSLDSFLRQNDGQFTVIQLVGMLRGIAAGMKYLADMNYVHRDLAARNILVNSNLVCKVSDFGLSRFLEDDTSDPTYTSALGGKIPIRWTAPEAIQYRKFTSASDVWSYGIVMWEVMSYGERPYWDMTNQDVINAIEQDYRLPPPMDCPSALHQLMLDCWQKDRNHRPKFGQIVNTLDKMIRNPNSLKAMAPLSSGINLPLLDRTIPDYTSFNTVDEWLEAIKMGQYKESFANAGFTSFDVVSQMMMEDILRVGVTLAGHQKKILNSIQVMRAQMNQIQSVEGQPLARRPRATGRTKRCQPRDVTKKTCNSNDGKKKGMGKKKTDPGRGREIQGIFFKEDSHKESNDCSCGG
The assay can be described thus: Kinase inhibition activity test, isotope labeling: EphB2. Conditions: ATP 10 μM; read-out: EphB2 IC50 value (inhibitory activity value). As to the method: as §1, §2, §3

For assay [4], the target named is PDGFRβ (Homo sapiens, UniProt P09619). The assay can be described thus: Kinase inhibition activity test, isotope labeling: PDGFRβ. Conditions: ATP 200 μM; read-out: PDGFRβ IC50 value (inhibitory activity value). Here is the method:
as §1, §2, §3

Assay [5] deals with FLT4 (Homo sapiens, UniProt P35916). The assay can be described thus: Kinase inhibition activity test, isotope labeling: FLT4. Conditions: ATP 200 μM; read-out: FLT4 IC50 value (inhibitory activity value). As to the method: as §1, §2, §3
In assay [6] the target is RET (Homo sapiens, UniProt P07949). The assay can be described thus: Kinase inhibition activity test, isotope labeling: RET. Conditions: ATP 70 μM; read-out: RET IC50 value (inhibitory activity value). As to the method: as §1, §2, §3

pIC50: −log10 of the molar value.

As usually defined, the pIC50 is the negative decadic logarithm of the IC50, by convention in mol/L.

Sequence of FLT1 (P17948 27-1338): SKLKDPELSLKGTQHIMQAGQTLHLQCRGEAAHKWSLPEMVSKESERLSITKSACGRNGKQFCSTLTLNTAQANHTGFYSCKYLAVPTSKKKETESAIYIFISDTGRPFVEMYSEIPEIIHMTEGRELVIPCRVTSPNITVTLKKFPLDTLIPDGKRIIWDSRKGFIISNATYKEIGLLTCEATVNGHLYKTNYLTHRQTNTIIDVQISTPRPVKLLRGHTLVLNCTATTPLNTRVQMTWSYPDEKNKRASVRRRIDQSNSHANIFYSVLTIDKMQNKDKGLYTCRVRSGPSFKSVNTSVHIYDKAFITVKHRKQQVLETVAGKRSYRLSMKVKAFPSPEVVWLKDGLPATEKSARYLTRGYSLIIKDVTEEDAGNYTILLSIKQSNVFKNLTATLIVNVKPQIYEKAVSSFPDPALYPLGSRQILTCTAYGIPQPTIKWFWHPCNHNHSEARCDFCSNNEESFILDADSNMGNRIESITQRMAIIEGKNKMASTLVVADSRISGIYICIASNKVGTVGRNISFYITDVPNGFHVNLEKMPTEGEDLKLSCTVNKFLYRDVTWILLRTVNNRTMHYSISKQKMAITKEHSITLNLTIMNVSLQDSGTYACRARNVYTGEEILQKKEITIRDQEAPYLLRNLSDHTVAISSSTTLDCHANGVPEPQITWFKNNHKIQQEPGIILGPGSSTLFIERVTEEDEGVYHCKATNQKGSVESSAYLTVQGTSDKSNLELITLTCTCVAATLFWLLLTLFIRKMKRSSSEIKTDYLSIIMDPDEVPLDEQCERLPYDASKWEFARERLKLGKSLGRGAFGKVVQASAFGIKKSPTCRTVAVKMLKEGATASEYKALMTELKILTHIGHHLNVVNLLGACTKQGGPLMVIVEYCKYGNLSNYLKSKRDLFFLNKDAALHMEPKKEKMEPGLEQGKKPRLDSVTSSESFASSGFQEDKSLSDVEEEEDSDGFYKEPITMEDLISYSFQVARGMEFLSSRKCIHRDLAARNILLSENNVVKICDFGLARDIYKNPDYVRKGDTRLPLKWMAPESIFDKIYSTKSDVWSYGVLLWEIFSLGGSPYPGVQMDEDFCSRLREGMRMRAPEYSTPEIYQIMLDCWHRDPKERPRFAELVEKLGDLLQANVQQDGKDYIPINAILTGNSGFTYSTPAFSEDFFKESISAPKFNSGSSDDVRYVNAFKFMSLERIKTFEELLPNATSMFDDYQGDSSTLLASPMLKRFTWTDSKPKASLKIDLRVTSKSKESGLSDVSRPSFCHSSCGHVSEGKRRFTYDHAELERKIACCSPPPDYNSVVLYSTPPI
Sequence of FLT4 (P35916 25-1363): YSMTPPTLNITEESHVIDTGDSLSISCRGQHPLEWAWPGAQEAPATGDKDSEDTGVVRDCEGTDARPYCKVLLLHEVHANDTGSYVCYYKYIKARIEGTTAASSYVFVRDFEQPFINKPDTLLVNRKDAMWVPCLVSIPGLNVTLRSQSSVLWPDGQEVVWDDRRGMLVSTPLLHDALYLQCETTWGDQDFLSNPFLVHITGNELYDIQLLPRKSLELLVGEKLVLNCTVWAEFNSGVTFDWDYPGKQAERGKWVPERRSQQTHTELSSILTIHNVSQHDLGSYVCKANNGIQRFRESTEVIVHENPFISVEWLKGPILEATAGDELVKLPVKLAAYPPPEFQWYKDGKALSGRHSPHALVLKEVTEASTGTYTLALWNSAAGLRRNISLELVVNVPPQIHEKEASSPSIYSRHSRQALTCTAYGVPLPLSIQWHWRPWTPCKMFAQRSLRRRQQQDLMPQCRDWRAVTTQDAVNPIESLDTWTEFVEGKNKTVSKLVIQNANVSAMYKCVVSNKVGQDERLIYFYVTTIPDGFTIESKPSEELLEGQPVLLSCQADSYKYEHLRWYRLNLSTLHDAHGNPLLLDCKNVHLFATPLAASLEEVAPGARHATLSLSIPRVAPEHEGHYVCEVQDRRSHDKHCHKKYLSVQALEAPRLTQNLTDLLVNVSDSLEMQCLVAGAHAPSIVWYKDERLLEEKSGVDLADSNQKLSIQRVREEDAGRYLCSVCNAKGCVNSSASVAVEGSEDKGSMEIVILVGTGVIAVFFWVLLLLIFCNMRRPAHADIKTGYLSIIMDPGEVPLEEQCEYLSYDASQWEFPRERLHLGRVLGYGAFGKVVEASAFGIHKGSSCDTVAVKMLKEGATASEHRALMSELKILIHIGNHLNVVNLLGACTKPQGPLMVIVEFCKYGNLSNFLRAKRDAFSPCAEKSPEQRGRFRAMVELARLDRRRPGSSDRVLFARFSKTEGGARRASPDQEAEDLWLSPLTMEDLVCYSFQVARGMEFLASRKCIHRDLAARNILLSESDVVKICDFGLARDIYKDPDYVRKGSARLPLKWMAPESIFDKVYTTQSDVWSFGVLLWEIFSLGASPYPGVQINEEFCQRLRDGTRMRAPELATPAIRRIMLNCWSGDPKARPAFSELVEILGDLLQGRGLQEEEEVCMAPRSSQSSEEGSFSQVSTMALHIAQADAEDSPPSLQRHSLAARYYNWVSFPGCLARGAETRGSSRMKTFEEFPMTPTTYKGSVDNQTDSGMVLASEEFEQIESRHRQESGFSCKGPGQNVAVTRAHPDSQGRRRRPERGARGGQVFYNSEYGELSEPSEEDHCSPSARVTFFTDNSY
Sequence of c-RAF (P04049 whole entry): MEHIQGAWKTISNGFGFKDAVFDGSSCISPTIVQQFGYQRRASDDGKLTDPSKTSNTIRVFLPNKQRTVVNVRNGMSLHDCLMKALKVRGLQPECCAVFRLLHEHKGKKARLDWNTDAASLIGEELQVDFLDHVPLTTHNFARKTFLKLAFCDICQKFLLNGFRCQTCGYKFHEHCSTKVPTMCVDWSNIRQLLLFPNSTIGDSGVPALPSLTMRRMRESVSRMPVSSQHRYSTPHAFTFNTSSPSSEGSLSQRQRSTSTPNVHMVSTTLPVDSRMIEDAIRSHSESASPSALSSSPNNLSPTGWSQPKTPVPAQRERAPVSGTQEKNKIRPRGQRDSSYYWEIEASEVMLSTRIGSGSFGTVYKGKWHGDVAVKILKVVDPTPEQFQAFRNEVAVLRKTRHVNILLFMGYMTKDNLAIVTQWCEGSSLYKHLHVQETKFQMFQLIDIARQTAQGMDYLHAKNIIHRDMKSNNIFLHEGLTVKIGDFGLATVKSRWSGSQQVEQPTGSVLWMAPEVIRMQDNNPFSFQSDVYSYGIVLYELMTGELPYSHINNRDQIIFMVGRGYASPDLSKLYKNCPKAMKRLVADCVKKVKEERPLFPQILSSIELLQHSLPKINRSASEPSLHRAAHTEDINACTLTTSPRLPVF
Sequence of RET (P07949 29-1114): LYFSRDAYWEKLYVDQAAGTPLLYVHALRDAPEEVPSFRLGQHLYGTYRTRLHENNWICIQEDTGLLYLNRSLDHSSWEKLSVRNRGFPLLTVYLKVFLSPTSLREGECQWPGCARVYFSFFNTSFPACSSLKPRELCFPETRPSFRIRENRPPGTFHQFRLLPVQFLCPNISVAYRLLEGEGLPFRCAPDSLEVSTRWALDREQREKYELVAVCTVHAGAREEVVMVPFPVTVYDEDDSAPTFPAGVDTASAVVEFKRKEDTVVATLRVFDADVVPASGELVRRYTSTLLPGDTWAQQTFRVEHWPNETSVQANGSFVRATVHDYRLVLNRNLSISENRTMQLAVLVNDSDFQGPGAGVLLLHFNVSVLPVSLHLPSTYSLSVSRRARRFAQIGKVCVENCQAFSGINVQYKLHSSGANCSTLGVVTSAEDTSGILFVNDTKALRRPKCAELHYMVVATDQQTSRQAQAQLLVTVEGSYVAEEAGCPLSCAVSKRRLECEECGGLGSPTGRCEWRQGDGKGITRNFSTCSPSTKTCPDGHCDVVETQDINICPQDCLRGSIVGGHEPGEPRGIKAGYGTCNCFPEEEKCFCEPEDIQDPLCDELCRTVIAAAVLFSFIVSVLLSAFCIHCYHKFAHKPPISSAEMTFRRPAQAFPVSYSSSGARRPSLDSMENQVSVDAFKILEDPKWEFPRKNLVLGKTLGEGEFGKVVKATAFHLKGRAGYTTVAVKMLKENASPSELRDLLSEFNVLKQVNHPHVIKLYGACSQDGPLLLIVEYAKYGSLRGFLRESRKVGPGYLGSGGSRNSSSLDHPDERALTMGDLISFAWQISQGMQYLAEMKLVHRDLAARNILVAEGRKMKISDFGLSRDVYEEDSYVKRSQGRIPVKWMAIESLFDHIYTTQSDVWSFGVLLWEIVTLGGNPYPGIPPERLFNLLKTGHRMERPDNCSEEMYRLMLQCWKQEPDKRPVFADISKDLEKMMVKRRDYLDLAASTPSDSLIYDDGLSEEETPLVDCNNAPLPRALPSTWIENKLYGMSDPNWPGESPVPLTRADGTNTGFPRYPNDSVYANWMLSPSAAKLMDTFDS

Regarding `O=C(Nc1ccc(Oc2ncnc3[nH]ncc23)cc1)Nc1ccc(Cl)c(C(F)(F)F)c1` [4a-2], the negative logarithm of the IC50 (pIC50) in assay [1] was 7.14; in assay [2], > 5.00; in assay [3] it was > 5.00; in assay [4] it was 6.39; in assay [5], > 5.00; in assay [6], > 5.00.
On to `O=C(Nc1ccc(Oc2ncnc3[nH]ncc23)cc1)Nc1cccc(C(F)(F)F)c1` [4a-6], for which the pIC50 in assay [1] is 7.09; in assay [2] it was 8.30; in assay [3], 6.86; in assay [4], 6.74; in assay [5], 8.30; in assay [6], 8.40.
Take `CC(C)(C)c1cc(NC(=O)Nc2ccc(Oc3ncnc4[nH]ncc34)cc2)on1` [4a-25]: the negative-log IC50 (pIC50) in assay [1] is 7.28; in assay [2] it was > 5.00; in assay [3], > 5.00; in assay [4], > 5.00; in assay [5], > 5.00; in assay [6], > 5.00.
Regarding `CC(C)(C)c1cc(NC(=O)Nc2ccc(Oc3ncnc4[nH]ncc34)c(F)c2)no1` [4a-31], the negative-log IC50 (pIC50) in assay [1] was 7.34; in assay [2], > 5.00; in assay [3], > 5.00; in assay [4] it was > 5.00; in assay [5], > 5.00; in assay [6], > 5.00.
